Where a name gives a salt, the structure may show the parent alone. Read-outs that look alike come from different tables or passages of the source.
Experiments:
[1] = tested on: tumor cells; settings: Zhang et al. 2004; cited from earlier work
[2] = tested on: human colon cancer cell line SW620; assay: In vivo pharmacodynamic study in SW620 model (Example 34); settings: 60 mg/kg iv QW × 4
[3] = tested on: human colon cancer cell line SW620; settings: for RTV (D 41) / T/C (%) RTV / T/C (%) TW / Tumor Weight (mg) (D 41): D 41
[4] = tested on: human triple-negative breast cancer MDA-MB-231; assay: Anti-breast tumor activity, subcutaneously implanted MDA-MB-231 (Example 22); assay type: in vivo, BALB/c nude mice; settings: Protocol I; 60 mg/kg iv
[5] = tested on: human triple-negative breast cancer cell line MDA-MB-231; assay: In vivo pharmacodynamic study on MDA-MB-231 tumor (Example 24); settings: for Body weight increase compared with before administration: mouse, in vivo
Procedure: One week after the last administration, tumors were taken from all the mice and weighed.
The clinical symptoms observed during the experiment were recorded in the raw data. Tumor volume was calculated by the following formula: […]
Relative tumor proliferation rate (T/C (%)) represents a ratio in percentage of relative tumor volumes or tumor weights of a treatment group and a control group at a time point, which was calculated by the following formula: […]
Relative tumor inhibition rate (TGI (%)) was calculated by the following formula: […]

[6] = tested on: human colon cancer cell line HCT116; settings: for RTV / Tumor Weight: D 43
From the text: One week after the last dose, tumors were taken from all mice, weighed, and photographed.

[7] = tested on: human ovarian cancer cell line SKOV-3; settings: for RTV / Tumor Weight: D 42
From the text: SKOV-3 tumor masses were subcutaneously inoculated to 80 BALB/c nude mice.

[8] = tested on: human colon cancer HT-29; assay: Anti-colon cancer activity, subcutaneously implanted HT-29 (Example 23); assay type: in vivo, BALB/c nude mice; settings: Protocol I; 60 mg/kg iv
[9] = CPT-11 80 mg/kg iv QW × 4, 2 surviving animals

SMILES: CCc1c2c(nc3ccc(O)cc13)-c1cc3c(c(=O)n1C2)COC(=O)[C@]3(O)CC [SN-38, 7-ethyl-10-hydroxycamptothecin]
- Efficacy on some tumor cells relative to CPT-11 [1]: 100-1000 times

SMILES: CCc1c2c(nc3ccc(OC(=O)N4CCC(N5CCCCC5)CC4)cc13)-c1cc3c(c(=O)n1C2)COC(=O)[C@]3(O)CC [CPT-11, irinotecan hydrochloride]
- T/C (%) TV [2]: 8%
- T/C (%) TW [2]: 7%
- TW (mg) (mean ± SEM) [2]: 99 ± 43 mg
- Body Weight (g, mean ± SEM) Day 11 ([2]; Day 11): 18.5 ± 0.6 g
- TV (mm^3) Day 11 (mean ± SEM) ([2]; Day 11): 157 ± 18 mm^3
- Body Weight (g, mean ± SEM) Day 39 ([2]; Day 39): 19.2 ± 0.7 g
- TV (mm^3) Day 39 (mean ± SEM) ([2]; Day 39): 154 ± 57 mm^3
- Body Weight Change (%) ([2]; Day 39 vs Day 11): +3.8%
- RTV (D 41) ([3]; 60 mg/kg): 4.69 ± 1.12
- T/C (%) RTV ([3]; 60 mg/kg): 28%
- T/C (%) TW ([3]; 60 mg/kg): 27%
- Tumor Weight (mg) (D 41) ([3]; 60 mg/kg): 465 ± 91 mg
- RTV (D 41) ([3]; 80 mg/kg): 5.95 ± 1.22
- T/C (%) RTV ([3]; 80 mg/kg): 36%
- T/C (%) TW ([3]; 80 mg/kg): 28%
- Tumor Weight (mg) (D 41) ([3]; 80 mg/kg): 495 ± 91 mg
- Body weight reduction at the end of the experiment compared with before administration ([3]; CPT-11 high dose (80 mg/kg)): 5.810%
- Body weight reduction at the end of the experiment compared with before administration ([3]; CPT-11 low dose (60 mg/kg)): 0.99%
- Tumor Inhibition Rate [4]: 71%
- Animal death ([5]; CPT-11 60 mg/kg): No animal died
- T/C (%) RTV ([5]; CPT-11 60 mg/kg iv QW × 3): 24%
- T/C (%) TW ([5]; CPT-11 60 mg/kg iv QW × 3): 28%
- RTV ([5]; CPT-11 60 mg/kg iv QW × 3, D33): 4.59 ± 1.04
- T/C (%) RTV ([5]; CPT-11 80 mg/kg iv QW × 3): 13%
- T/C (%) TW ([5]; CPT-11 80 mg/kg iv QW × 3): 16%
- RTV ([5]; CPT-11 80 mg/kg iv QW × 3, D33): 2.46 ± 0.41
- Tumor Weight ([5]; CPT-11 80 mg/kg iv QW × 3, D33): 391 ± 143 mg
- Animal death ([5]; CPT-11 80 mg/kg, 7 animals): one animal died
- Body weight increase compared with before administration ([5]; 60 mg/kg): 2.41%
- Body weight increase compared with before administration ([5]; 80 mg/kg): 1.950%
- Reduction in body weight at the end of the experiment compared to before administration ([6]; CPT-11 60 mg/kg): 14.41%
- T/C (%) RTV ([6]; CPT-11 60 mg/kg iv QW × 4): 35%
- T/C (%) TW ([6]; CPT-11 60 mg/kg iv QW × 4): 26%
- RTV ([6]; CPT-11 60 mg/kg iv QW × 4): 4.42 ± 1.05
- Tumor Weight ([6]; CPT-11 60 mg/kg iv QW × 4): 370 ± 87 mg
- Reduction in body weight at the end of the experiment compared to before administration ([6]; CPT-11 80 mg/kg): 16.00%
- T/C (%) RTV ([6]; CPT-11 80 mg/kg iv QW × 4): 16%
- T/C (%) TW ([6]; CPT-11 80 mg/kg iv QW × 4): 12%
- RTV ([6]; CPT-11 80 mg/kg iv QW × 4): 1.95 ± 0.31
- Tumor Weight ([6]; CPT-11 80 mg/kg iv QW × 4): 173 ± 34 mg
- T/C (%) RTV ([7]; CPT-11 60 mg/kg iv QW × 4): 64%
- T/C (%) TW ([7]; CPT-11 60 mg/kg iv QW × 4): 67%
- RTV ([7]; CPT-11 60 mg/kg iv QW × 4): 9.20 ± 0.79
- Tumor Weight ([7]; CPT-11 60 mg/kg iv QW × 4): 1179 ± 150 mg
- T/C (%) RTV ([7]; CPT-11 80 mg/kg iv QW × 4): 79%
- T/C (%) TW ([7]; CPT-11 80 mg/kg iv QW × 4): 95%
- RTV [7, 9]: 11.44 ± 0.21
- Tumor Weight [7, 9]: 1664 ± 258 mg
- Animals died ([7]; CPT-11 80 mg/kg, 8 animals): 6
- Body weight increase at the end of the experiment ([7]; CPT-11 high dose (80 mg/kg), two living animals): 11.94%
- Body weight increase at the end of the experiment ([7]; CPT-11 low dose (60 mg/kg)): 6.97%
- Tumor Inhibition Rate [8]: 47%

From US12370187B2, “Composition containing antitumor drug, and preparation method thereof and use thereof” (KUNSHAN XINYUNDA BIOTECH CO., LTD., priority 2021, dated 2025)
